Data: paper PMC8161485 (ACS Central Science, 2021)
Entries after “also recorded” stand apart in the source; their conditions may differ.

Test system: heme oxygenase 1 (HO-1)
Assay: Induction of heme oxygenase 1 in primary AML specimens
Assay type: cell-based, human
Conditions: compared to vehicle-only control

For `C=C1C(=O)O[C@H]2[C@H]1CC/C(C)=C/CC[C@@]1(C)O[C@@H]21` [PTL, parthenolide], which “induction of heme oxygenase 1 (HO-1)” value is on record?
The value was “Dose-dependent induction; also recorded: comparatively larger induction of HO-1 at lower doses”.
